Assay results: patent publication US20240376076A1, “INHIBITORS TARGETING UBIQUITIN SPECIFIC PROTEASE 7 (USP7)” (Dana-Farber Cancer Institute, Inc., priority 2021, published 2024)

molecular target: T1, USP7, Active human recombinant protein (Homo sapiens, UniProt Q93009); test: USP7 assay (Ubiquitin-Rhodamine 110 enzymatic assay); format: biochemical; settings: read-out: IC50
T1 construct: purchased CP Lot; 20200225001
Description: Enzymatic Assays with Exemplary USP7 Irreversible Inhibitors
ND refers to not disclosed.
USP7, Active human recombinant protein (CP, Lot. 20200225001), Ubiquitin-Rhodamine 110 (Rh110) (BostonBiochem, Cat. No. U-555), DMSO (Sigma, Cat. N34869), DTT (Sangon Biotech, Cat. No. A620058-0005), […] Tris pH 8.0 (Sigma, Cat. No. T2694-1L), Tween-20 (Sigma, Cat. No. P2287-100ML), EDTA (Invitrogen, Cat. No. 15575020, BSA (Sigma, Cat. No. B2064-100G), 384-well assay plate (Corning, Cat. No. 3573), Echo Qualified 384-Well Polypropylene Microplate 2.0, Clear, Flat Bottom (LABCYTE, Cat. No. 001-14555).
Dilute the compounds to 400× of the final desired highest inhibitor concentration in reaction by 100% DMSO. For all compounds, transfer the compounds to one well in a 384-well Echo plate and serially dilute the compound by 3-fold dilution of 100% DMSO in the next well and so forth for a total of 10 concentrations by Precision. Add 30 μL of 100% DMSO to two empty wells for no compound control and no enzyme control in the same 384-well Echo plate. Make the plate as a source plate.
For USP7 assay, transfer 50 nL of each well from the source plate to a 384-well assay plate (OptiPlate TM-384 F black assay plates) by Echo 550 Liquid Handler.
Added appropriate amount of USP7 in 1× assay Buffer to prepare 2× enzyme solution (USP7 final concentration: 0.05 nM). Added appropriate amount of Ubiquitin-Rhodamine 110 in 1× assay Buffer to prepare 2× substrate solution (Ubiquitin-Rhodamine 110 final concentration: 190 nM). Added 10 μL of 2× enzyme solution to each reaction well of the 384-well assay plate, except for control wells without enzyme (add 10 μL of 1× Assay Buffer instead as for low control). […] Transferred 2× substrate solution to the assay plate. Added 10 μL of 2× substrate solution to each well of the 384-well assay plate to start reaction. Centrifuged at 1000 rpm for 1 min. Read the plate kinetically on SpectraMax Paradigm for 20 min with excitation at 485 nm and emission at 535 nm. Copied raw data (slope) from Reader to obtain inhibition values in Excel using equation (1): […]
Max signal was obtained from the action of Enzyme and Substrate. Min signal was obtained from the Substrate only. To fit the data in XLFit excel add-in version 5.4.0.8 to obtain IC50 values used equation (2): […]
Y is % inhibition and X is compound concentration.

T1 sequence (Q93009 whole entry): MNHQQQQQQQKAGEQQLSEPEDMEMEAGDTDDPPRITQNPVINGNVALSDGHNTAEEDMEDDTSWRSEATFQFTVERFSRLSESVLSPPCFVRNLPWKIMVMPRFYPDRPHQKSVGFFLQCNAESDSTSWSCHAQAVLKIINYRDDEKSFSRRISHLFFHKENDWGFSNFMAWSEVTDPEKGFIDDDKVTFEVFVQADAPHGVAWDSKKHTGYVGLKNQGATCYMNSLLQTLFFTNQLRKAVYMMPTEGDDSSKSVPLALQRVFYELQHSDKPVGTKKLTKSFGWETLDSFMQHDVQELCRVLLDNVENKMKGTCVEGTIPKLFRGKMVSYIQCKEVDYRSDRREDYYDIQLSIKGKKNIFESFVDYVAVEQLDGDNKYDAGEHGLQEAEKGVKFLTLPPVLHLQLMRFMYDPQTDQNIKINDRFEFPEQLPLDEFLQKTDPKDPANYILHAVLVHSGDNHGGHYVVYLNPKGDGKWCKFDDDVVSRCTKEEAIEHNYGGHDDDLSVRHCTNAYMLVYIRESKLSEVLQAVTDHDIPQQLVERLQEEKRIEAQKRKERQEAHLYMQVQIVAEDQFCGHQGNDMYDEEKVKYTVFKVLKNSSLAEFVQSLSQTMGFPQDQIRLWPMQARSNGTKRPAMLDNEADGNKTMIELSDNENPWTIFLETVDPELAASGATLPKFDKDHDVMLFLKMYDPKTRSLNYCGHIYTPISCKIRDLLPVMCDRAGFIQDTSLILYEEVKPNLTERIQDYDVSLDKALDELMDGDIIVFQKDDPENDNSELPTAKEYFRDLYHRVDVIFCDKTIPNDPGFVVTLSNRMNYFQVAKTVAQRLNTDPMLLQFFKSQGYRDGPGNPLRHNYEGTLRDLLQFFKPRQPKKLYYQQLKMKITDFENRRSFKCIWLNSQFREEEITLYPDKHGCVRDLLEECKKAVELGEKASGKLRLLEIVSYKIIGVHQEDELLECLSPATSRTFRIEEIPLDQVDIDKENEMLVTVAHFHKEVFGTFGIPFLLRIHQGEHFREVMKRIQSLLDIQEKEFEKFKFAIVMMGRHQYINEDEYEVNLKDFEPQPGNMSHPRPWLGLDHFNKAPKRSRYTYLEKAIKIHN

**Q.** How did the IC50 turn out when O=C(CCn1cccn1)Nc1ccc2c(=O)n(CC3(O)CCN(C(=O)C(CCCNC(=O)c4ccc5c(Cl)ccnc5c4)Cc4ccccc4)CC3)cnc2c1 (stereo not shown) [Compound 64, N-(5-(4-((7-(3-(JH-pyrazol-1-yl)propanamido)-4-oxoquinazolin-3(4H)-yl)methyl)-4-hydroxypiperidin-1-yl)-4-benzyl-5-oxopentyl)-4-chloroquinoline-7-carboxamide] was run?
**A.** 100 to 1000 nM

**Q.** Which IC50 does the source give for CN(C)CCC(=O)Nc1ccc2c(=O)n(CC3(O)CCN(C(=O)C(CCCNC(=O)c4ccc5c(Cl)c6c(nc5c4)CNCC6)Cc4ccccc4)CC3)cnc2c1 (stereo not shown) [Compound 88] here?
**A.** > 1000 nM

**Q.** For CN(C)CC(=O)Nc1ccc2c(=O)n(CC3(O)CCN(C(=O)[C@H]4CC[C@H](NC(=O)c5ccc6c(Cl)ccnc6c5)CC4)CC3)cnc2c1 [Compound 35, 4-chloro-N-((1R,4R)-4-(4-((7-(2-(dimethylamino)acetamido)-4-oxoquinazolin-3(4H)-yl)methyl)-4-hydroxypiperidine-1-carbonyl)cyclohexyl)quinoline-7-carboxamide], which IC50 is on record?
**A.** > 1000 nM

**Q.** Which IC50 does the source give for CN1CCN(CCn2ncc3ncn(CC4(O)CCN(C(=O)C(CCCNC(=O)c5ccc6c(Cl)ccnc6c5)Cc5ccccc5)CC4)c(=O)c32)CC1 (stereo not shown) [Compound 28] here?
**A.** > 1000 nM

**Q.** How did the IC50 turn out when Cc1cc(Cl)n2cc(C(=O)NCCCC(Cc3ccccc3)C(=O)N3CCC(O)(Cn4cnc5cc(NC(=O)CCN(C)C)ccc5c4=O)CC3)cc2n1 (stereo not shown) [Compound 45, N-(4-benzyl-5-(4-((7-(3-(dimethylamino)propanamido)-4-oxoquinazolin-3(4H)-yl)methyl)-4-hydroxypiperidin-1-yl)-5-oxopentyl)-4-chloro-2-methylpyrrolo[1,2-a]pyrimidine-7-carboxamide] was run?
**A.** > 1000 nM

**Q.** With COc1cc2c(=O)n(CC3(O)CCN(C(=O)[C@H](CCCNC(=O)c4ccc5c(Cl)cc(C6CC6)nc5c4)Cc4ccccc4)CC3)cnc2cc1OCCCN(C)C [Compound 138] as the molecule, how does the IC50 read?
**A.** 20 to 100 nM

**Q.** How did the IC50 turn out when CN1CCN(CCC(=O)Nc2ccc3c(=O)n(CC4(O)CCN(C(=O)[C@H](CCCNC(=O)c5ccc6c(Cl)cc(-c7cnn(CC(F)(F)F)c7)nc6c5)Cc5ccccc5)CC4)cnc3c2)CC1 [Compound 19] was run?
**A.** > 1000 nM

**Q.** How did the IC50 turn out when O=C(CCN1CCNCC1)Nc1ccc2c(=O)n(CC3(O)CCN(C(=O)[C@@H]4CCN(CCNC(=O)c5ccc6c(Cl)ccnc6c5)C[C@H]4c4ccc(C(F)(F)F)cc4)CC3)cnc2c1 [Compound 101] was run?
**A.** > 1000 nM

**Q.** CN(C)CC(=O)Nc1ccc2c(=O)n(CC3(O)CCN(C(=O)C4CCCC(NC(=O)c5ccc6c(Cl)ccnc6c5)C4)CC3)cnc2c1 (stereo not shown) [Compound 36, 4-chloro-N-(3-(4-((7-(2-(dimethylamino)acetamido)-4-oxoquinazolin-3(4H)-yl)methyl)-4-hydroxypiperidine-1-carbonyl)cyclohexyl)quinoline-7-carboxamide] was tested. Which IC50 did it give?
**A.** > 1000 nM

**Q.** How did the IC50 turn out when CN(C)CCC(=O)Nc1ccc2c(=O)n(CC3(O)CCN(C(=O)[C@@H]4CN(CCNC(=O)c5ccc6c(Cl)ccnc6c5)C[C@H]4c4ccccc4)CC3)cnc2c1 [Compound 76] was run?
**A.** 100 to 1000 nM

**Q.** For Cc1cc(Cl)c2ccc(C(=O)NCCC[C@@H](Cc3ccccc3)C(=O)N3CCC(O)(Cn4cnc5cc(NC(=O)CCN(C)C)ccc5c4=O)CC3)cc2n1 [Compound 51, (S)—N-(4-benzyl-5-(4-((7-(3-(dimethylamino)propanamido)-4-oxoquinazolin-3(4H)-yl)methyl)-4-hydroxypiperidin-1-yl)-5-oxopentyl)-4-chloro-2-methylquinoline-7-carboxamide], which IC50 is on record?
**A.** 20 to 100 nM

**Q.** With CN(C)CCC(=O)Nc1ccc2c(=O)n(CC3(O)CCN(C(=O)C(CCCNC(=O)c4ccc5c(Cl)ccnc5c4)Cc4cccnc4)CC3)cnc2c1 (stereo not shown) [Compound 82] as the molecule, how does the IC50 read?
**A.** 100 to 1000 nM

**Q.** With O=C(NCCN1CCC(C(=O)N2CCC(O)(Cn3cnc4cc(OCCN5CCNCC5)ccc4c3=O)CC2)C(c2ccccc2)C1)c1ccc2c(Cl)cc(C3CC3)nc2c1 (stereo not shown) [Compound 107] as the molecule, how does the IC50 read?
**A.** 20 to 100 nM
